The results in this text go back to US12577255B2, “MDM2-based modulators of proteolysis and associated methods of use” (Arvinas Operations, Inc., priority 2015, dated 2026).

Structures are written as SMILES.

The target of the first test is T1, bromodomain-containing protein 4 (BRD4) (Homo sapiens, UniProt O60885).
T1 construct: VCaP cells were chased from ATCC and cultured in Dulbecco's Modified Eagle's Medium; host or cells: VCaP
Briefly: BRD4 Western blot (degradation). The following applies: at 1 μM; VCaP cells, 16 h. In kind it is cell-based. On the procedure: The following biological assays were performed to evaluate the protein degradation in various cell types using representative compounds disclosed. The degradation of the following proteins were evaluated: bromodomain-containing protein 4 (BRD4), androgen receptor (AR), c-Myc, c-Jun N-terminal kinases (JNK), and enhancer of zeste homolog 2 (EZH2).
VCaP cells were chased from ATCC and cultured in Dulbecco's Modified Eagle's Medium (ATCC), supplemented with 10% FBS (ATCC) and Penicillin/Streptomycin (Life Technologies). DMSO control and compound treatments (0.03 μM to 1 μM) were performed in 12-well plates for 16 h. cells were harvested, and lysed in RIPA buffer (50 mM Tris pH8, 150 mM NaCl, 1% Tx-100, 0.1% SDS, 0.5% sodium deoxycholate) supplemented with protease and phosphatase inhibitors. Lysates were clarified at 16,000 g for 10 minutes, and protein concentration was determined. Equal amount of protein (20 μg) was subjected to SDS-PAGE analysis and followed by immunoblotting according to standard protocols. The antibodies used were BRD4 (Cell signaling #13440), and Actin (Sigma #5441). Detection reagents were Clarity Western ELC substrate (Bio-rad #170-5060).
(A western blot detects proteins with antibodies after separation by electrophoresis.)
For `Cc1sc2c(c1C)C(c1ccc(Cl)cc1)=N[C@@H](CC(=O)NCCOCCOCCOCCOCCOCCNC(=O)C1NC(CC(C)(C)C)C(C#N)(c3ccc(Cl)cc3F)C1c1cccc(Cl)c1F)c1nnc(C)n1-2` (stereo partly drawn) [Compound A1283, N-(17-{[3-(3-chloro-2-fluorophenyl)-4-(4-chloro-2-fluorophenyl)-4-cyano-5-(2,2-dimethylpropyl)pyrrolidin-2-yl]formamido}-3,6,9,12,15-pentaoxaheptadecan-1-yl)-2-[(9S)-7-(4-chlorophenyl)-4,5,13-trimethyl-3-thia-1,8,11,12-tetraazatricyclo-[8.3.0.0^2,^6]trideea-2(6),4,7,10,12-pentaen-9-yl]acetamide], the “Degradation activity BRD4” value is recorded as “B (25 to 50% degradation at 1 μM)”. In the case of `Cc1sc2c(c1C)C(c1ccc(Cl)cc1)=N[C@@H](CC(=O)NCCOCCOCCOCCNC(=O)C1N[C@@H](CC(C)(C)C)[C@](C#N)(c3ccc(Cl)cc3F)[C@H]1c1cccc(Cl)c1F)c1nnc(C)n1-2` (stereo partly drawn) [Compound A1306, N-(2-{2-[2-(2-{[3-(3-chloro-2-fluorophenyl)-4-(4-chloro-2-fluorophenyl)-4-cyano-5-(2,2-dimethylpropyl)pyrrolidin-2-yl]formamido}ethoxy)ethoxy]ethoxy}ethyl)-2-[(9S)-7-(4-chlorophenyl)-4,5,13-trimethyl-3-thia-1,8,11,12-tetraazatricyclo[8.3.0.0^2,^6]trideca-2(6),4,7,10,12-pentaen-9-yl]acetamide], the “Degradation activity BRD4” value is given as “B (25 to 50% degradation at 1 μM)”. Regarding `Cc1sc2c(c1C)C(c1ccc(Cl)cc1)=N[C@@H](CC(=O)NCCOCCOCCOCCOCCNC(=O)C1N[C@@H](CC(C)(C)C)[C@](C#N)(c3ccc(Cl)cc3F)[C@H]1c1cccc(Cl)c1F)c1nnc(C)n1-2` (stereo partly drawn) [Compound A1307, N-(14-{[3-(3-chloro-2-fluorophenyl)-4-(4-chloro-2-fluorophenyl)-4-cyano-5-(2,2-dimethylpropyl)pyrrolidin-2-yl]formamido}-3,6,9,12-tetraoxatetradecan-1-yl)-2-[(9S)-7-(4-chlorophenyl)-4,5,13-trimethyl-3-thia-1,8,11,12-tetraazatricyclo-[8.3.0.0^2,^6]trideca-2(6),4,7,10,12-pentaen-9-yl]acetamide], the “Degradation activity BRD4” value is “C (larger than 50% degradation at 1 μM)”. `COc1cc(C(=O)NCCOCCOCCOCCNC(=O)C[C@@H]2N=C(c3ccc(Cl)cc3)c3c(sc(C)c3C)-n3c(C)nnc32)ccc1NC(=O)C1N[C@@H](CC(C)(C)C)[C@](C#N)(c2ccc(Cl)cc2F)[C@H]1c1cccc(Cl)c1F` (stereo partly drawn) [Compound A1829, 3-(3-chloro-2-fluorophenyl)-4-(4-chloro-2-fluorophenyl)-N-{4-[(2-{2-[2-(2-{2-[(9S)-7-(4-chlorophenyl)-4,5,13-trimethyl-3-thia-1,8,11,12-tetraazatricyclo[8.3.0.0^2,^6]trideca-2(6),4,7,10,12-pentaen-9-yl]acetamido}ethoxy)ethoxy]ethoxy}ethyl)carbamoyl]-2-methoxyphenyl}-4-cyano-5-(2,2-dimethylpropyl)pyrrolidine-2-carboxamide]: the “Degradation activity BRD4” value was “B (25 to 50% degradation at 1 μM)”. In the case of `COc1cc(C(=O)NCCOCCOCCNC(=O)C[C@@H]2N=C(c3ccc(Cl)cc3)c3c(sc(C)c3C)-n3c(C)nnc32)ccc1NC(=O)C1N[C@@H](CC(C)(C)C)[C@](C#N)(c2ccc(Cl)cc2F)[C@H]1c1cccc(Cl)c1F` (stereo partly drawn) [Compound A1863, 3-(3-chloro-2-fluorophenyl)-4-(4-chloro-2-fluorophenyl)-N-[4-({2-[2-(2-{2-[(9S)-7-(4-chlorophenyl)-4,5,13-trimethyl-3-thia-1,8,11,12-tetraazatricyclo-[8.3.0.0^2,^6]trideca-2(6),4,7,10,12-pentaen-9-yl]acetamido}ethoxy)ethoxy]-ethyl}carbamoyl)-2-methoxyphenyl]-4-cyano-5-(2,2-dimethylpropyl)pyrrolidine-2-carboxamide], the “Degradation activity BRD4” value is listed as “B (25 to 50% degradation at 1 μM)”.

With `COc1cc(C(=O)NCCOCCOCCNC(=O)C[C@@H]2N=C(c3ccc(Cl)cc3)c3c(sc(C)c3C)-n3c(C)nnc32)ccc1NC(=O)[C@H]1N[C@H](CC(C)(C)C)[C@@](C#N)(c2ccc(Cl)cc2F)[C@@H]1c1cccc(Cl)c1F` [Compound A1865, (2S,3R,4S,5R)-3-(3-chloro-2-fluorophenyl)-4-(4-chloro-2-fluorophenyl)-N-[4-({2-[2-(2-{2-[(9S)-7-(4-chlorophenyl)-4,5,13-trimethyl-3-thia-1,8,11,12-tetraazatricyclo-[8.3.0.0^2,^6]trideca-2(6),4,7,10,12-pentaen-9-yl]acetamido}ethoxy)ethoxy]ethyl}-carbamoyl)-2-methoxyphenyl]-4-cyano-5-(2,2-dimethylpropyl)pyrrolidine-2-carboxamide], the “Degradation activity BRD4” value was “A (0 to 25% degradation at 1 μM)”. Regarding `COc1cc(C(=O)NCCOCCOCCOCCNC(=O)C[C@@H]2N=C(c3ccc(Cl)cc3)c3c(sc(C)c3C)-n3c(C)nnc32)ccc1NC(=O)[C@@H]1N[C@@H](CC(C)(C)C)[C@](C#N)(c2ccc(Cl)cc2F)[C@H]1c1cccc(Cl)c1F` [Compound A1874, (2R,3S,4R,5S)-3-(3-chloro-2-fluorophenyl)-4-(4-chloro-2-fluorophenyl)-N-{4-[(2-{2-[2-(2-{2-[(9S)-7-(4-chlorophenyl)-4,5,13-trimethyl-3-thia-1,8,11,12-tetraazatricyclo[8.3.0.0^2,^6]trideca-2(6),4,7,10,12-pentaen-9-yl]acetamido}ethoxy)ethoxy]ethoxy}ethyl)carbamoyl]-2-methoxyphenyl}-4-cyano-5-(2,2-dimethylpropyl)pyrrolidine-2-carboxamide], the “Degradation activity BRD4” value is on record as “B (25 to 50% degradation at 1 μM)”. For the compound `COc1cc(C(=O)NCCOCCOCCOCCNC(=O)C[C@@H]2N=C(c3ccc(Cl)cc3)c3c(sc(C)c3C)-n3c(C)nnc32)ccc1NC(=O)[C@H]1N[C@H](CC(C)(C)C)[C@@](C#N)(c2ccc(Cl)cc2F)[C@@H]1c1cccc(Cl)c1F` [Compound A1875, (2S,3R,4S,5R)-3-(3-chloro-2-fluorophenyl)-4-(4-chloro-2-fluorophenyl)-N-{4-[(2-{2-[2-(2-{2-[(9S)-7-(4-chlorophenyl)-4,5,13-trimethyl-3-thia-1,8,11,12-tetraazatricyclo[8.3.0.0^2,^6]trideca-2(6),4,7,10,12-pentaen-9-yl]acetamido}ethoxy)ethoxy]ethoxy}ethyl)carbamoyl]-2-methoxyphenyl}-4-cyano-5-(2,2-dimethylpropyl)pyrrolidine-2-carboxamide], the “Degradation activity BRD4” value is listed as “A (0 to 25% degradation at 1 μM)”. Take `COc1cc(C(=O)NCCOCCOCCOCCOCCNC(=O)C[C@@H]2N=C(c3ccc(Cl)cc3)c3c(sc(C)c3C)-n3c(C)nnc32)ccc1NC(=O)C1N[C@@H](CC(C)(C)C)[C@](C#N)(c2ccc(Cl)cc2F)[C@H]1c1cccc(Cl)c1F` (stereo partly drawn) [Compound A1876, 3-(3-chloro-2-fluorophenyl)-4-(4-chloro-2-fluorophenyl)-N-{4-[(14-{2-[(9S)-7-(4-chlorophenyl)-4,5,13-trimethyl-3-thia-1,8,11,12-tetraazatricyclo[8.3.0.0^2,^6]-trideca-2(6),4,7,10,12-pentaen-9-yl]acetamido}-3,6,9,12-tetraoxatetradecan-1-yl)carbamoyl]-2-methoxyphenyl}-4-cyano-5-(2,2-dimethylpropyl)pyrrolidine-2-carboxamide]: the “Degradation activity BRD4” value is on record as “C (larger than 50% degradation at 1 μM)”.

As for `COc1cc(C(=O)NCCOCCNC(=O)C[C@@H]2N=C(c3ccc(Cl)cc3)c3c(sc(C)c3C)-n3c(C)nnc32)ccc1NC(=O)C1N[C@@H](CC(C)(C)C)[C@](C#N)(c2ccc(Cl)cc2F)[C@H]1c1cccc(Cl)c1F` (stereo partly drawn) [Compound A1890, 3-(3-chloro-2-fluorophenyl)-4-(4-chloro-2-fluorophenyl)-N-(4-{[2-(2-{2-[(9S)-7-(4-chlorophenyl)-4,5,13-trimethyl-3-thia-1,8,11,12-tetraazatricyclo[8.3.0.0^2,^6]-trideca-2(6),4,7,10,12-pentaen-9-yl]acetamido}ethoxy)ethyl]carbamoyl}-2-methoxyphenyl)-4-cyano-5-(2,2-dimethylpropyl)pyrrolidine-2-carboxamide], the “Degradation activity BRD4” value is reported as “C (larger than 50% degradation at 1 μM)”.

Another test relates to p53. Briefly: Western blot of HCT116 cells, p53 level. Format: cell-based, human. The following applies: Western blot (FIG. 2, FIG. 3).
For `COc1cc(C(=O)NCCOCCOCCOCCOCC(=O)N[C@H](C(=O)N2C[C@H](O)C[C@H]2C(=O)NCc2ccc(-c3scnc3C)cc2)C(C)(C)C)ccc1NC(=O)C1NC(CC(C)(C)C)C(C#N)(c2ccc(Cl)cc2F)C1c1cccc(Cl)c1F` (mixture of isomers) [Compound A1895, 3-(3-chloro-2-fluorophenyl)-4-(4-chloro-2-fluorophenyl)-4-cyano-5-(2,2-dimethylpropyl)-N-{4-[(1-{[(2S)-1-[(2S,4R)-4-hydroxy-2-({[4-(4-methyl-1,3-thiazol-5-yl)phenyl]methyl}carbamoyl)pyrrolidin-1-yl]-3,3-dimethyl-1-oxobutan-2-yl]carbamoyl}-2,5,8,11-tetraoxatridecan-13-yl)carbamoyl]-2-methoxyphenyl}pyrrolidine-2-carboxamide], the p53 level increase entry is reported as “dose dependent p53 level increase”. With `COc1cc(C(=O)NCCOCCOCCOCCOCC(=O)N[C@H](C(=O)N2C[C@H](O)C[C@H]2C(=O)NCc2ccc(-c3scnc3C)cc2)C(C)(C)C)ccc1NC(=O)[C@@H]1N[C@@H](CC(C)(C)C)[C@](C#N)(c2ccc(Cl)cc2F)[C@H]1c1cccc(Cl)c1F` (single isomer, unassigned) [Compound A1896], the p53 level increase result was “dose dependent p53 level increase”.
